One compound from publication PMC5440690, “Sirt1 carboxyl-domain is an ATP-repressible domain that is transferrable to other proteins” (Nature Communications, 2017) can be followed below.

Experiment [1] addresses T1, 2A Sirt1 (Mus musculus, UniProt Q923E4, S649A/S651A).
T1 construct: full-length recombinant 2A Sirt1
T1 sequence (Q923E4 1-737 S649A/S651A): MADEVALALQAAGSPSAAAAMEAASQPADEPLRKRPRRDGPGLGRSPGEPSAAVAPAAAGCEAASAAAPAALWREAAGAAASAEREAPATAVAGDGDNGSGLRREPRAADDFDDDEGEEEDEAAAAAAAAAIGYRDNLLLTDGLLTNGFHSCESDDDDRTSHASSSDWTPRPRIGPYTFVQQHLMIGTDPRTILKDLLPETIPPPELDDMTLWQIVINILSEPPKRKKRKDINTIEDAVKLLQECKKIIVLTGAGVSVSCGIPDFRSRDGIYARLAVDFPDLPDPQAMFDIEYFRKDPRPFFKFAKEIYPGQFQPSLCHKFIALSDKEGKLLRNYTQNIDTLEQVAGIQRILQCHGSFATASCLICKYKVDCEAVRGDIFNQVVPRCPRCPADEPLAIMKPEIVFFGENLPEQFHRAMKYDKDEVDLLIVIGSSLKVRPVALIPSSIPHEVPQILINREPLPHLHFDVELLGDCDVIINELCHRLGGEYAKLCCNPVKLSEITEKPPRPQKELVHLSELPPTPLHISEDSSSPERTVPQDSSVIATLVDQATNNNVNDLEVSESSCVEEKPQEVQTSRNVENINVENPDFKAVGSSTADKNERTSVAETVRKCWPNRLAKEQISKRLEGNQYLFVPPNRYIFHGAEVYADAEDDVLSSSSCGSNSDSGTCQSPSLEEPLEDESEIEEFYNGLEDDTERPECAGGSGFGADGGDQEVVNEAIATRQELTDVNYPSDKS
Nature of the experiment: deacetylation of [3H]Ac-H4, inhibition kinetics (Kii); weakened ATP-agarose binding. The class given is biochemical.

In experiment [2] the target is T2, Sirt1 (Mus musculus, UniProt Q923E4).
T2 construct: full-length recombinant Sirt1
T2 sequence (Q923E4 2-737): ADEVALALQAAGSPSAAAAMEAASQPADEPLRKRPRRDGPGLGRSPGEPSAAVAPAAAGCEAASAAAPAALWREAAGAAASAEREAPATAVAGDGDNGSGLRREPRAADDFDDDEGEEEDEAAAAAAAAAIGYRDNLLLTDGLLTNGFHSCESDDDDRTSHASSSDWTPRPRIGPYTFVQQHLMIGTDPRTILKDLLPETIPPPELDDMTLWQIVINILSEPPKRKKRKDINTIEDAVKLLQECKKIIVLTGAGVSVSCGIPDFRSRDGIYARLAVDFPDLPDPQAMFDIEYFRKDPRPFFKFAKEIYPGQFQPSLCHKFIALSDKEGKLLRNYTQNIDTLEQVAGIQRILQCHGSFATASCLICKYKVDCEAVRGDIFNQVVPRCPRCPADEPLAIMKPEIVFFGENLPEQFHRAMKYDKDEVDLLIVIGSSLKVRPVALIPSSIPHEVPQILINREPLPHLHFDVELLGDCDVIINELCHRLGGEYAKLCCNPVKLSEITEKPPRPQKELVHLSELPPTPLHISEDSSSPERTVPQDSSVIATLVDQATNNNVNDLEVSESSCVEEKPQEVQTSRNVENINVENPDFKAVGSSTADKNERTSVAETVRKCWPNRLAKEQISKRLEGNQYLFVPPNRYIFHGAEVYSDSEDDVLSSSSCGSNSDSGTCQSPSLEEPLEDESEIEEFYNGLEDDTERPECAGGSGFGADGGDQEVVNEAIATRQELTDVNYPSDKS
Nature of the experiment: gel-filtration (spin column) binding with [γ-32P]ATP; also ATP-agarose pull-down with free ATP competition, and enzyme inhibition.

For the compound `Nc1ncnc2c1ncn2[C@@H]1O[C@H](COP(=O)(O)OP(=O)(O)OP(=O)(O)O)[C@@H](O)[C@H]1O` [ATP], in experiment [1], the Ki was determined as 6.45 ± 0.51 mM. This compound returned a Kd in experiment [2] of about 4.6 mM.

One may read the Ki as a measure of affinity in units of concentration, obtained from inhibition or displacement. In general, Kd refers to the free concentration of one partner at which half of the binding sites on the other are occupied at equilibrium, for simple one-to-one binding.
